Measured values taken from patent US9226919B2, “Methods for dosing an orally active 1,2,4-oxadiazole” (PTC Therapeutics, Inc., priority 2006, dated 2016).

Experiments:
[1] = Body weight, Phase 2 cystic fibrosis study; format: in vivo, human
Excerpt: 3-[5-(2-Fluoro-phenyl)-[1,2,4]oxadiazol-3-yl]-benzoic acid was provided in a formulation described herein.
Statistically significant results and positive trends for secondary endpoints were also observed. In particular, although the trials were not been powered to detect statistical significant changes in secondary endpoints, statistically significant improvements from study entry to the end of the higher-dose treatment cycle in the patients' mean FEV1, FVC and weight were observed.

[2] = test system: dystrophin; test: In vitro myotube culture of patients' primary muscle cells, dystrophin expression; format: cell-based, human
Experimental: Studies are performed on muscle tissue and skin from patients to determine whether dystrophin production in primary muscle cultures from the patients corresponds with dystrophin production in vivo. […] Correlations of skin cell response with clinical activity may offer an easy-to-obtain predictive test in selecting future patients for therapy or for screening new agents for the treatment of DMD. Cells are cultured as follows. Biopsy material is stored during transport in human proliferation medium (or PBS), and on ice for longer time periods if necessary. If the tissue is not prepared within 24 hours, the material can be frozen in human proliferation medium containing 10% DMSO and stored in liquid nitrogen (or dry ice). At the time the tissue is to be prepared for setting up the myoblast culture, biopsy material is washed in PBS. PBS sufficient to keep the tissue moist is added into a culture dish. The biopsy material is minced thoroughly with razor blades, toward an almost homogeneous suspension. Approximately 2 ml of collegenase/dispase/CaCl2 solution per gram of tissue is added and mincing is continued for several minutes (e.g. for a muscle biopsy of 5×5×5 mm use 1 ml of enzyme solution). […] The myogenic cell content of the culture is determined by performing a desmin-staining. […]

[3] = test system: CFTR; test: Transepithelial potential difference (TEPD) chloride conductance, Phase 2 cystic fibrosis study; format: in vivo, human; conditions: 15 CF patients
Experimental: The measurement of transepithelial potential difference (TEPD), also known as nasal potential difference, provides a sensitive evaluation of sodium and chloride transport directly in secretory epithelial cells via assessment of transepithelial bioelectric properties (Knowles et al., 1981, N. Engl. J. Med. 305(25):1489-95; Knowles et al., 1995, Hum. Gene Ther. 6:445). TEPD is performed in each nostril using standardized techniques (Standaert et al., 2004, Ped. Pulm. 37:385-92). In the procedure, a small plastic catheter is used to assess electrical differences across the outer cell membrane of nasal mucosa cells in the nostril. TEPD values are expressed in millivolts, or mV. A chloride conductance equal to or more electrically negative than −5.0 mV is generally considered to be in the normal range. […] TEPD assessments can also be made on rectal epithelial cells and lower respiratory epithelial cells. Because of the role of the CFTR protein in transporting chloride ions across cell membranes, and because of the absence of this protein, cystic fibrosis patients have an abnormal TEPD chloride conductance. As an endpoint, TEPD has the advantage that it can detect chloride transport changes that are a quantitative integration of the presence, functional activity, and apical location of the CFTR in airway cells. Furthermore, it is a direct measure of CFTR activity that is not likely to be affected by supportive or palliative treatments for CF (with the possible exception of systemically administered aminoglycoside antibiotics). Of importance is evidence that TEPD values can correlate with the degree of pulmonary dysfunction and radiographic abnormality (Ho et al., 1997, Eur. Respir. J. 10(9):2018-22; Fajac et al., 1998, Eur. Respir. J 12(6):1295-300; Sermet-Gaudelus et al., 2005, Am. J. Respit. Crit. Care Med. 171(9):1026-1031). […] Under baseline conditions, TEPD-assessed chloride channel activity is very unlikely to normalize spontaneously in patients with CF; any observed improvements in TEPD-assessed chloride channel activity are expected to specifically denote pharmacological activity of CFTR-correcting therapies. […]
Clinical endpoints were evaluated using the procedures set forth above. […] Pulmonary tests, including FEV1, FVC and MEF25-75, were measured prior to treatment, on day −1 of Cycle 2, on day 13 or 14 of Cycle 1 and day 13 or 14 of Cycle 2 in the study being conducted in Israel and the same parameters were measured prior to treatment and on day 13 or 14 of Cycle 2 in the study being conducted in the United States. […]

[4] = higher dose level (10, 10, 20 mg/kg TID, 14 days)
[5] = lower dose level (4, 4, 8 mg/kg TID, 14 days)

In the case of `O=C(O)c1cccc(-c2noc(-c3ccccc3F)n2)c1` [3-[5-(2-fluoro-phenyl)-[1,2,4]oxadiazol-3-yl]-benzoic acid], the “Weight, End of Higher Dose Treatment” value ([1]; end of higher-dose cycle (10, 10, 20 mg/kg TID), study entry 58.3 kg) is reported as 59.0 kg, the “Weight, Change” value ([1]; study entry to end of higher dose treatment) is reported as 0.7 kg and the “Dystrophin expression in myotube cultures” value ([2]; cultured in the presence of the compound) is reported as “dose-dependent increase in dystrophin expression”. For the same compound, the “In Vitro Expression Response (dystrophin)” value ([2]; myotube culture of pre-treatment primary muscle cells of individual DMD patients) was “Yes”, the “Mean change in TEPD chloride conductance, best of nostrils” value [3, 4] was −6.4 mV and the “Mean change in TEPD chloride conductance, mean of both nostrils” value [3, 4] was −4.4 mV. For the same compound, the “Mean change in TEPD chloride conductance, best of nostrils” value [3, 5] was −9.0 mV and the “Mean change in TEPD chloride conductance, mean of both nostrils” value [3, 5] was −6.7 mV.
